Source: patent US20030055073A1, “Remedies for sjoegren's syndrome” (priority 2000, published 2003)

Key:
[1] = Toxicity: maximum tolerated dose with an intravenous injection; settings: mouse, in vivo, mice
Experimental: The toxicity of the compound represented by formula (I), (IA) or (Ia) of the present invention is very low and it was confirmed that it is sufficiently safe as a medicament. For example, a maximum tolerated dose with an intravenous injection using the compound represented by formula (Ia) of the present invention is 30 mg/kg in mice.

[2] = test system: NFS/sld female mice (thymic gland extracted on the 3rd day after birth; Sjögren's syndrome model); test: Gland liquid secretion after pilocarpine stimulation in model mouse of naturally crisis Sjögren's syndrome; type: in vivo; settings: 5 μg/kg/day s.c. once per day from 3 to 8 week age; 8th week, 0.5 mg/kg pilocarpine hydrochloride i.p.; measured for 35 minutes at 5 minute intervals
Experimental: (§1) NFS/sld female mice of which thymic gland have been extracted on the 3rd day after the birth have Sjögren's syndrome after 4 weeks (Journal of Immunology, 153, 2769 (1994)). The compound represented by formula (la) of the present invention was subcutaneously administered once per day (5 μg/kg/day) to the mice from 3 week age to 8 week age which were immediately before histologic grand disorder was observed. The experiment was carried out for 3 non-administered groups (pathologic control) and 5 administered groups. In the 8th week, a stimulating agent (0.5 mg/kg pilocarpine hydrochloride) was intraperitoneally administered, and an amount of salivary gland liquid and an amount of lacrimal gland liquid were measured and evaluation was carried out by tissue findings.
Tables 1 and 2 show amounts of gland liquids (salivary gland secretory liquid and lacrimal gland secretory liquid) as cumulative rates (AUC) which measured for 35 minutes at the interval of 5 minutes after the administration of the stimulating agent.

[3] = test system: NFS/sld female mice (thymic gland extracted on the 3rd day after birth; Sjögren's syndrome model); test: Laesio score by tissue findings of target organs in model mouse of Sjögren's syndrome (standard of White and Casarett); type: in vivo; settings: 5 μg/kg/day s.c., 3 to 8 week age
Experimental: as §1
The score is improved at a factor of ⅓ to ½ in each gland. The score was obtained based on the standard of White and Casarett (Journal of Immunology, 112, 178 (1974)).

**Q.** Which results are given for `C[C@H]1CC(=N)N[C@@H]2[C@H](Cl)[C@@H]21` [formula (Ia), (+)-trans-3-imino-5-methyl-7-chloro-2-azabicyclo[4.1.0]heptane]?
**A.** MTD [1]: 30 mg/kg; Lacrimal gland secretory liquid after administration of stimulating agent AUC0-35 minutes [2]: 0.798 mm/animal weight (g); Salivary gland secretory liquid after administration of stimulating agent AUC0-35 minutes [2]: 15.8 μl/animal weight (g); laesio score improved at a factor of (versus non-administered group) ([3]; each gland, score by standard of White and Casarett): ⅓ to ½; inhibition effect on laesio for each target organ ([3]; submaxillary salivary gland, sublingual gland, parotid gland, lacrimal gland, FIG. 1): significant inhibition effects on laesio
